The subject of one data set is skin wrinkles or sagging. The experiment in a line: Parallel-group double-blind test, 10-level self-rating of facial skin condition. It is filed as in vivo, human. The following applies: oral ingestion, 4 weeks, conclusion from Table 2. Here is the method: Females aged 47 to 65 years (21 subjects) who chronically suffer from dry skin and rough skin were divided into two groups. After a 2-week observation period, Group 1 (9 subjects) and Group 2 (12 subjects) ingested hard capsules of Example 6 and hard capsules of Comparative Example 2, respectively, for 4 weeks (2 capsules each morning and evening). The test was carried out by parallel-group double-blind test. At the start and the end of the period of ingesting hard capsules, the following questions 1 to 3 were addressed to the subjects (answer “1”: level 1, answer “10”: level 10) and the skin conditions of the subjects were evaluated by a 10-level rating system. • Question 1: Evaluate the level of wrinkles on your face.
1: Wrinkles all over the surface
10: No wrinkles • Question 2: Evaluate the elasticity of the skin of your face.
10: Extreme elasticity • Question 3: Evaluate the firmness of the skin of your face.
The improvement rate (%) was calculated according to Equation 1. Improvement rate (%)=average value of levels after intake/average value of levels before intake×100 [Equation 1]

Data set [1] is described as follows: Concentration of free hydroxyproline in serum and skin after oral intake. It is filed as in vivo. The following applies: HOS:HR-1 mouse, 500 mg/kg oral, 0.5-24 hours, FIGS. 1 and 2. Here is the method: HOS:HR-1 mouse (seven-week-old female; purchased from Japan SLC, Inc.) was used in the test.
Trans-4-hydroxy-L-proline (Kyowa Hakko Kogyo Co., Ltd.; hereinafter referred to as hydroxyproline) was dissolved in purified water at a concentration of 50 mg/ml, and the resulting solution was orally administered in an amount of 500 mg/kg. After 0.5, 1, 2, 4, 6 and 24 hours, blood was collected from the abdominal vena cava of the mouse under diethyl ether inhalation anesthesia to obtain a serum. After cervical dislocation, dorsal skin was collected, subjected to freeze-disruption and then to extraction with water to obtain a skin extract.
The amount of hydroxyproline in the sera and the skin extract was analyzed by high performance liquid chromatography using ODS column ([…]×15 cm, GL Sciences Inc.) after protein was removed with an equal amount of 2% (w/v) sulfosalicylic acid and the second amino group was labeled with NBD-Cl (4-chloro-7-nitro-2,1,3-benzoxadiazole, Tokyo Chemical Industry Co., Ltd.).

Data set [2] relates to synthesis of collagen in the skin. Put plainly: Subcutaneous sponge implant: amount of hydroxyproline as index of collagen-synthesizing and tissue-restoring ability. It is filed as in vivo. As to conditions: rats, sponge pieces, Student's t-test p < 0.05. Here is the method:
F344/DuCrlCrlj rats (12 heads, 29-week-old male; purchased from Charles River Laboratories Japan, Inc.) were divided into 2 groups each consisting of 6 rats.
The rats of Group 1 and Group 2 were fed with the feed of Example 5 and the control feed of Comparative Example 1, respectively, ad libitum for 7 days. The abdominal area of each rat was shaved with clippers under anesthesia by intraperitoneal administration of pentobarbital, and cut sponge pieces (ca. 150 mg, 2 mm thick, ca. 38 mm×12 mm; Ivalon, Inc.) were inserted into two spots under the skin, followed by suturing. After further feeding for 7 days, the sponge pieces were taken out.
The sponge pieces were subjected to reaction using 6N hydrochloric acid (20 ml/piece) at 110° C. for 18 hours to decompose them with acid and heat. The products obtained by decomposition with acid and heat were diluted 10 times with 1M borate buffer (pH 10.6), and the amount of hydroxyproline was measured in the same manner as in Test Example 1 and was regarded as an index of the collagen-synthesizing ability and tissue-restoring ability of a rat.
The values were shown in terms of average value ±standard deviation and a test of statistical significance was performed by Student's t-test.

`O=C(O)[C@@H]1C[C@@H](O)CN1` [hydroxyproline, Trans-4-hydroxy-L-proline]: in the data set on skin wrinkles or sagging, the “wrinkles and sagging of the face” value was “improved”. In data set [1], the “movement of orally ingested hydroxyproline into blood and skin (free hydroxyproline in serum and skin extract)” value is “quickly moves into blood and skin”. The “amount of hydroxyproline derived from heat-decomposed collagen (versus control feed)” value in data set [2] is listed as “significantly increased”.
